These results are taken from patent publication US6593299B1, “Compositions and methods for controlling pests” (priority 1999, dated 2003).

In assay [1] the test system is fourth instar Heliothis virescens. Kind of assay: Feeding TMOF analogs to fourth instar H. virescens: larval weight. It counts as in vivo. The note with it: fourth instar larvae; for Weight Gain: 0.8 mg of analogue, 5 days; for Weight mg ± S.E.M. End: synthetic food and 0.8 mg of analogue, after 5 days; for Weight mg ± S.E.M. Start: weight before feeding (baseline). The protocol:
(§1) Several analogues were chosen and were fed to fourth instar Heliothis virescens for seven (7) days and to first instars for fourteen (14) days (Tables 3 and 4). In both cases a reduction in weight gain and trypsin inhibition was noted (Tables 3 and 4).
(§2) Individual first instar and fourth instar larvae of H. virescens were maintained in separate plastic cups and were fed on artificial diet blocks on which different concentrations of TMOF (0 to 1.6 mg) were adsorbed. Larvae were fed for 5 to 14 days and larval weight and trypsin activity were measured at the end of the experimental periods. […] When first instar larvae were fed for 14 days, an 18% and 26% reduction in weight was observed when analogues 15 and 16 were used (Table 4).
Fourth instar larvae were weighed and fed on synthetic food and 0.8 mg of TMOF analogues for 5 days. […]. Results are average of 3 to 10 experiments S.E.M.

In assay [2] the test system is TTLE biosynthesis. Kind of assay: Feeding TMOF analogs to fourth instar H. virescens: gut trypsin (TTLE) biosynthesis by [3H]DFP. It counts as in vivo, Heliothis virescens. Details: Trypsin: unit not given here. The note with it: fourth instar larvae, 0.8 mg of analogue, 5 days; for Trypsin: guts incubated with [3H]DFP; for Inhibition (trypsin): versus control.
Assay [3] deals with first instar Heliothis virescens. Description: Feeding first instar H. virescens on TMOF analogs for 14 days. It is filed as in vivo. Details: Weight Reduction ± S.E.M.: concentration or dose not given beside the values. The note with it: first instar larvae fed 14 days; for Weight Reduction ± S.E.M.: versus control. The method, then:
as §1, §2

In assay [4] the test system is Aedes aegypti larvae. Kind of assay: Feeding TMOF and analog peptides to mosquito larvae (LD50). The note with it: newly hatched larvae on autoclaved yeast 1 mg/ml, peptide 0 to 5.0 mg/ml, microtiter plates, 7 days. It counts as in vivo. An excerpt:
TMOF can traverse the gut epithelium, enter the hemolymph and bind a gut receptor (Borovsky, D. and F. Mahmood (1995) “Feeding the mosquito Aedes aegypti with TMOF and its analogs; effect on trypsin biosynthesis and egg development,” Regulatory Peptides 57:273-281.; Borovsky et al. (1994) “Characterization and localization of mosquito-gut receptors for trypsin modulating oostatic factor using complementary peptide immunochemistry”FASEB J. 8:350-355.). This characteristic permits the testing of TMOF and its analogues by feeding them to mosquito and other pest larvae. To find out if truncated TMOF peptides have an effect on larval growth and development, a series of peptides were synthesized and tested by feeding them to mosquito larvae at concentrations of 0 to 5.0 mg/ml (Table 2). Individual, newly hatched Aedes aegypti larvae were maintained in separate microtiter plate wells on a diet of autoclaved yeast (1 mg/ml). The diet was supplemented with TMOF peptides (Table 2). An identical number of larvae maintained on yeast served as a control. […] All control groups survived and larval growth and development was normal. Since larvae swallow only a small portion of the yeast particles adsorbed the peptides, it is assumed that approximately 1 to 20 ng are taken orally at the high concentrations.

Square brackets hold non-standard residues; d marks the D form. Ends that are not written are not given here. Peptide text beside a SMILES is read from it.

In the case of `C[C@H](NC(=O)[C@@H]1CCCN1C(=O)[C@@H](CC(=O)O)NC(=O)[C@@H](N)Cc1ccc(O)cc1)C(=O)N1CCC[C@H]1C(=O)O` [17. Y(D)DPAP, Y(D)DPAP] (H-Y[dD]PAP-OH; N-terminus and C-terminus assumed), in assay [1], the “Weight Gain” value is 153 mg, the “Weight mg ± S.E.M. End” value amounted to 188 ± 12 mg and the “Weight mg ± S.E.M. Start” value was 34.6 ± 2 mg. In addition, in assay [2], the Trypsin is 2.1 ± 0.2 and the “Inhibition (trypsin)” value worked out at 15 ± 1.3%. In assay [3], the “Number of Dead Larvae” value was 1, the “Weight ± S.E.M.” value is reported as 152 ± 27 mg and the “Weight Reduction ± S.E.M.” value was 7 ± 1%. Take `N[C@@H](Cc1ccc(O)cc1)C(=O)N[C@H](CC(=O)O)C(=O)N1CCC[C@H]1C(=O)O` [22. Y(D)DP, Y(D)DP] (H-Tyr-[dD]-Pro-OH; N-terminus and C-terminus assumed): the “LD50 + S.E.M.” value in assay [4] is reported as 0.28 ± 0.01 mM. On the same count and under the same terms, next, `N[C@H](Cc1ccc(O)cc1)C(=O)N[C@@H](CC(=O)O)C(=O)N1CCC[C@H]1C(=O)O` [24. (D)YDP, (D)YDP] (H-[dY]-Asp-Pro-OH; N-terminus and C-terminus assumed): 0.51 ± 0.05 mM; `C[C@H](NC(=O)[C@H](C)NC(=O)[C@@H](N)CC(=O)O)C(=O)O` [25. DAA, DAA] (H-Asp-Ala-Ala-OH; N-terminus and C-terminus assumed): 0.91 ± 0.06 mM; `N[C@@H](Cc1ccc(O)cc1)C(=O)N[C@@H](CC(=O)O)C(=O)NCC(=O)O` [26. YDG, YDG] (H-Tyr-Asp-Gly-OH; N-terminus and C-terminus assumed): 0.95 ± 0.11 mM.

For `N[C@@H](Cc1ccc(O)cc1)C(=O)N[C@@H](CC(=O)O)C(=O)N[C@@H](Cc1ccccc1)C(=O)O` [27. YDF, YDF] (H-Tyr-Asp-Phe-OH; N-terminus and C-terminus assumed), the “LD50 + S.E.M.” value in assay [4] came to 0.97 ± 0.11 mM. `C[C@H](N)C(=O)N1CCC[C@H]1C(=O)N[C@@H](C)C(=O)O` [28. APA, APA] (H-Ala-Pro-Ala-OH; N-terminus and C-terminus assumed): the “LD50 + S.E.M.” value in assay [4] was found to be 1.0 ± 0.07 mM.

`C[C@H](N)C(=O)N[C@@H](C)C(=O)N1CCC[C@H]1C(=O)O` [29. AAP, AAP] (H-Ala-Ala-Pro-OH; N-terminus and C-terminus assumed): the “LD50 + S.E.M.” value in assay [4] is 1.08 ± 0.07 mM. On the same count and under the same terms, next, `N[C@@H](Cc1ccc(O)cc1)C(=O)N[C@@H](CO)C(=O)N[C@@H](Cc1ccccc1)C(=O)O` [30. YSF, YSF] (H-Tyr-Ser-Phe-OH; N-terminus and C-terminus assumed): 1.08 ± 0.12 mM. On to `N[C@@H](CC(=O)O)C(=O)N[C@@H](Cc1ccc(O)cc1)C(=O)N1CCC[C@H]1C(=O)O` [31. DYP, DYP] (H-Asp-Tyr-Pro-OH; N-terminus and C-terminus assumed), for which, in assay [1], the “Weight Gain” value is 180.5 mg, the “Weight mg ± S.E.M. End” value was 216.7 ± 13 mg and the “Weight mg ± S.E.M. Start” value is reported as 36.2 ± 2.4 mg. The “LD50 + S.E.M.” value in assay [4] came to 1.27 ± 0.17 mM. Moreover, in assay [2], the Trypsin amounted to 2.2 ± 0.3 and the “Inhibition (trypsin)” value amounted to 14 ± 1.8%. Besides, in assay [3], the “Number of Dead Larvae” value amounted to 1, the “Weight ± S.E.M.” value came to 149 ± 9 mg and the “Weight Reduction ± S.E.M.” value turned out to be 9 ± 0.5%. As to `C[C@H](NC(=O)[C@H](CC(=O)O)NC(=O)[C@@H](N)Cc1ccc(O)cc1)C(=O)O` [32. YDA, YDA] (H-Tyr-Asp-Ala-OH; N-terminus and C-terminus assumed), the “LD50 + S.E.M.” value in assay [4] is given as 1.6 ± 0.13 mM. Regarding `N[C@@H](Cc1ccccc1)C(=O)N[C@@H](CC(=O)O)C(=O)N1CCC[C@H]1C(=O)O` [33. FDP, FDP] (H-Phe-Asp-Pro-OH; N-terminus and C-terminus assumed), in assay [4], the “LD50 + S.E.M.” value is reported as 1.98 ± 0.6 mM. For `N[C@@H](Cc1ccc(O)cc1)C(=O)N[C@@H](CC(=O)O)C(=O)N1CCC[C@H]1C(=O)O` [34. YDP, YDP] (H-Tyr-Asp-Pro-OH; N-terminus and C-terminus assumed), in assay [1], the “Weight Gain” value is given as 186.3 mg, the “Weight mg ± S.E.M. End” value was determined as 223.4 ± 16 mg and the “Weight mg ± S.E.M. Start” value worked out at 37 ± 1.5 mg. In addition, the “LD50 + S.E.M.” value in assay [4] was determined as 2.3 ± 0.4 mM. For the same compound, in assay [2], the Trypsin is 2.1 ± 0.3 and the “Inhibition (trypsin)” value is listed as 19 ± 3.2%. In assay [3], the “Number of Dead Larvae” value was 0, the “Weight ± S.E.M.” value worked out at 157 ± 10 mg and the “Weight Reduction ± S.E.M.” value stood at 4 ± 0.2%. Turning to `N[C@@H](Cc1ccccc1)C(=O)N[C@@H](CO)C(=O)N1CCC[C@H]1C(=O)O` [35. FSP, FSP] (H-Phe-Ser-Pro-OH; N-terminus and C-terminus assumed), the “LD50 + S.E.M.” value in assay [4] is 2.3 ± 0.13 mM. On the same count and under the same terms, for `C[C@H](NC(=O)[C@@H](N)Cc1ccc(O)cc1)C(=O)N1CCC[C@H]1C(=O)O` [36. YAP, YAP] (H-Tyr-Ala-Pro-OH; N-terminus and C-terminus assumed) the value was 2.3 ± 0.5 mM; for `C[C@H](NC(=O)[C@H](C)NC(=O)[C@@H]1CCCN1)C(=O)O` [37. PAA, PAA] (H-Pro-Ala-Ala-OH; N-terminus and C-terminus assumed), 2.4 ± 0.34 mM. On the same count and under the same terms, for `C[C@H](NC(=O)[C@@H]1CCCN1)C(=O)N1CCC[C@H]1C(=O)O` [38. PAP, PAP] (H-Pro-Ala-Pro-OH; N-terminus and C-terminus assumed) the value was 3.17 ± 0.14 mM; for `C[C@H](NC(=O)[C@@H](N)Cc1ccccc1)C(=O)N1CCC[C@H]1C(=O)O` [39. FAP, FAP] (H-Phe-Ala-Pro-OH; N-terminus and C-terminus assumed), 3.8 ± 0.23 mM; for `C[C@H](N)C(=O)N[C@@H](CC(=O)O)C(=O)N1CCC[C@H]1C(=O)O` [40. ADP, ADP] (H-Ala-Asp-Pro-OH; N-terminus and C-terminus assumed), more than 6.6 mM. On the same count and under the same terms, next, `N[C@@H](Cc1ccc(O)cc1)C(=O)N[C@@H](CC(=O)O)C(=O)O` [41. YD, YD] (H-Tyr-Asp-OH; N-terminus and C-terminus assumed): 1.24 ± 0.06 mM. Take `N[C@@H](CC(=O)O)C(=O)N[C@@H](Cc1ccc(O)cc1)C(=O)O` [42. DY, DY] (H-Asp-Tyr-OH; N-terminus and C-terminus assumed): the “LD50 + S.E.M.” value in assay [4] was determined as 3.0 ± 0.8 mM. For the compound ADAAP (()..() TMOF analog) [ADAAP(12)], in assay [1], the “Weight Gain” value is reported as 174.1 mg, the “Weight mg ± S.E.M. End” value turned out to be 209.7 ± 12 mg and the “Weight mg ± S.E.M. Start” value is reported as 35.7 ± 1.5 mg. In assay [2], the Trypsin is on record as 2.4 ± 0.3 and the “Inhibition (trypsin)” value is recorded as 5 ± 0.6%. Also, in assay [3], the “Number of Dead Larvae” value is on record as 0, the “Weight ± S.E.M.” value amounted to 141 ± 9 mg and the “Weight Reduction ± S.E.M.” value came out at 7 ± 0.4%.

Regarding ADPAP [21. ADPAP, ADPAP], the “LD50 + S.E.M.” value in assay [4] is listed as 2.0 ± 0.36 mM.

Turning to FDPAP [5. FDPAP, FDPAP], the “LD50 + S.E.M.” value in assay [4] turned out to be 0.37 ± 0.15 mM. Regarding MPDYPPPPP [2. MPDYP5, MPDYP5], in assay [4], the “LD50 + S.E.M.” value is more than 3.0 mM.

Turning to YAPAP [8. YAPAP, YAPAP], the “LD50 + S.E.M.” value in assay [4] came out at 0.54 ± 0.13 mM. Same read-out and setting: next, YDLAP [13. YDLAP, YDLAP]: 0.6 ± 0.05 mM; YDPAA [19. YDPAA, YDPAA]: 1.6 ± 0.13 mM. Same read-out and setting: next, YDPAF [3. YDPAF, YDPAF]: 0.33 ± 0.2 mM.

As to YDPAL [7. YDPAL, YDPAL], in assay [4], the “LD50 + S.E.M.” value was determined as 0.52 ± 0.03 mM.

Regarding “YDPAP [12. YDPAP, YDPAP, reference compound]”, the “LD50 + S.E.M.” value in assay [4] was 0.64 ± 0.03 mM. Same read-out and setting: next, “YDPAPPPPPP [1. YDPAP6, YDPAP6, reference compound]”: 0.2 ± 0.02 mM; YDPFP [20. YDPFP, YDPFP]: 1.7 ± 0.4 mM.

For the compound YDPLP [6. YDPLP, YDPLP], the “LD50 + S.E.M.” value in assay [4] is on record as 0.5 ± 0.04 mM. For YEPAP [4. YEPAP, YEPAP], the “LD50 + S.E.M.” value in assay [4] is recorded as 0.35 ± 0.02 mM. Still for that read-out and setting: for YFPAP [11. YFPAP, YFPAP] the value was 0.64 ± 0.03 mM; for YNPAP [9. YNPAP, YNPAP], 0.55 ± 0.03 mM.
